{"source": "BindingDB's records for doi:10.3109/14756366.2013.765417", "about": "(Msa University, 2014)", "key": {"[1]": {"target": "Epidermal growth factor receptor (Homo sapiens, UniProt P00533)", "sequence (P00533 whole entry)": "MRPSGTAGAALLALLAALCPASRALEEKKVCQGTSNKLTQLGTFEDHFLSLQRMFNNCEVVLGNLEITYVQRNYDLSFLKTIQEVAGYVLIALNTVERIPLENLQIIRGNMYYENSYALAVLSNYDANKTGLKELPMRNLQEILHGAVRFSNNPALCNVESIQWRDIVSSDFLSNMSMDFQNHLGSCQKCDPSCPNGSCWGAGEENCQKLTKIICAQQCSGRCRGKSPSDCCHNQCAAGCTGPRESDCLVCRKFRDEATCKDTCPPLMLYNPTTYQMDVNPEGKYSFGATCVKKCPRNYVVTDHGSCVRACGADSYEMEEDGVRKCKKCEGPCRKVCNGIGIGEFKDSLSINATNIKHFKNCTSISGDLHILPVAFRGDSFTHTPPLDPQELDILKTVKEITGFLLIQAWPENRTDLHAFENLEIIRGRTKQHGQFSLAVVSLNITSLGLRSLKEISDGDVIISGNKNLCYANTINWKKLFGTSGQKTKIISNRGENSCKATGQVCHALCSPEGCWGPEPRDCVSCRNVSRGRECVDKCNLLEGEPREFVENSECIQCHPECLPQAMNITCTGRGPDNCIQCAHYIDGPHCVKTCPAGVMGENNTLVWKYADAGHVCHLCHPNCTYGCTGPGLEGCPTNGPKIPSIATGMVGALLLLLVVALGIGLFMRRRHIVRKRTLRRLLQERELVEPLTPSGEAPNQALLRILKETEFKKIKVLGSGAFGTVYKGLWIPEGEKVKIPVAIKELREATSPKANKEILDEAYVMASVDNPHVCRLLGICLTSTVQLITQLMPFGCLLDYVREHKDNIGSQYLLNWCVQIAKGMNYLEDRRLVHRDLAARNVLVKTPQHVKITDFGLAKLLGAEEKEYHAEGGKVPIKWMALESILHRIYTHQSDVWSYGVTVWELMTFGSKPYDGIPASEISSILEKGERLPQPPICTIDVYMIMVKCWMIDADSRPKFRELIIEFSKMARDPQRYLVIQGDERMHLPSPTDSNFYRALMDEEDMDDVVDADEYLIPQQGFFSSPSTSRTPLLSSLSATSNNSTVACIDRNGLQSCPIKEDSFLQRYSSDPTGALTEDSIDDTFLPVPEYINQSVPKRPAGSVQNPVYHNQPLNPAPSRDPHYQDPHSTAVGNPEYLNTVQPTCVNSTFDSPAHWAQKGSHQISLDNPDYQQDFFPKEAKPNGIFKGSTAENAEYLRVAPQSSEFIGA", "assay": "In Vitro Tyrosine Kinase Enzyme Assay", "method": "(§1) Protein kinase assays were performed at ambient temperature for 20-40 min (depending on the target) in a final volume of 25 μl according to the following assay reaction recipe: […] of diluted active protein kinase target (~10-50 nM final protein concentration in the assay), 2.5 μl of peptide substrate, 3. μl of kinase assay buffer, 5 μl of compound or 10% DMSO, and 5 μl of 33P-ATP (250 μM stock solution, 0.8 mCi). The assay was initiated by the addition of 33P-ATP and the reaction mixture was incubated at ambient temperature for 20-40 min, depending on the protein kinase target. After the incubation period, the assay was terminated by spotting 10 μl of the reaction mixture onto Multiscreen phosphocellulose P81 plate. The Multiscreen phosphocellulose P81 plate was washed three times for approximately 15 min each in a 1% phosphoric acid solution. The radioactivity on the P81 plate (EMD Millipore Corporation, Billerica, MA) was counted in the presence of scintillation fluid in a Trilux scintillation counter (GMI Inc., Ramsey, MN)."}, "[2]": {"target": "Receptor tyrosine-protein kinase erbB-2 (Homo sapiens, UniProt P04626)", "sequence (P04626 whole entry)": "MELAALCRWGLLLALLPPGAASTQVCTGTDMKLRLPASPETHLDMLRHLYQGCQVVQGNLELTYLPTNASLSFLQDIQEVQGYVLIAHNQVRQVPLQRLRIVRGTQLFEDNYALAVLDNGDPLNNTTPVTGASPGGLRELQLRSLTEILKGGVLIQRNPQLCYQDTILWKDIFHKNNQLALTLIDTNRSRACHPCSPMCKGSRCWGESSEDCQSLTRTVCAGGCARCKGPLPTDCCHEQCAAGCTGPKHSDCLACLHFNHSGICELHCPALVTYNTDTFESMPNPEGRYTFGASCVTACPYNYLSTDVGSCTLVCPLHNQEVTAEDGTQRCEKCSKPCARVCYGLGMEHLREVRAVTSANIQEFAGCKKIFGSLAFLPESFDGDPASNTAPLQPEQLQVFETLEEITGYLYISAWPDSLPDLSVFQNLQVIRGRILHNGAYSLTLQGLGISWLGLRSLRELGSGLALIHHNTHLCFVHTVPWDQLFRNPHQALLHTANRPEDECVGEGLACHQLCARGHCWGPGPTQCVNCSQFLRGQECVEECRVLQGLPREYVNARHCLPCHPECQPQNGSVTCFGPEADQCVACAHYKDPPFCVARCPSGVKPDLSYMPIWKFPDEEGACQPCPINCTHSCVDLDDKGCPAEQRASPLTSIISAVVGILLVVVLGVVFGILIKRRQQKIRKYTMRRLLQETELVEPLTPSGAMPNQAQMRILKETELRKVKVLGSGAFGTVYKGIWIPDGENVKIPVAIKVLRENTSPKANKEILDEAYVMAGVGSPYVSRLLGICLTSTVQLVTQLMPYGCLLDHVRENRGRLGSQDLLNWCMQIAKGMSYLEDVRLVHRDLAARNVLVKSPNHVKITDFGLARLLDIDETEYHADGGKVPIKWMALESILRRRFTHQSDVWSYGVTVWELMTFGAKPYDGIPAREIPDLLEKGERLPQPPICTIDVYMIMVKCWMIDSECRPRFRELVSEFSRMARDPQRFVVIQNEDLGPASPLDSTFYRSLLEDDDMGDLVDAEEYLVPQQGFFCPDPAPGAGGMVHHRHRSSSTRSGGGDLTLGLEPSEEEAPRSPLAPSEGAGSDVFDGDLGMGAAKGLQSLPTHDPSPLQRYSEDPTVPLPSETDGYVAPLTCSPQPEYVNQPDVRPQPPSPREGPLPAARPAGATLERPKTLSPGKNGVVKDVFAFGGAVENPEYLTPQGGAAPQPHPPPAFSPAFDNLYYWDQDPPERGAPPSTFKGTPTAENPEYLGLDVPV", "assay": "In Vitro Tyrosine Kinase Enzyme Assay", "method": "as §1"}}, "note": "pIC50: −log10 of the molar value."}
{"compound": "COc1cc2ncnc(Nc3ccc(C(=O)/C=C/c4ccc(Cl)cc4)cc3)c2cc1OC", "note": "[(E)-3-(4-Chlorophenyl)-1-{4-[(6,7-dimethoxyquinazolin-4-yl)amino]phenyl}prop-2-en-1-one]", "values": [{"measurement": "pIC50", "setting": "[1]", "value": 5.59}, {"measurement": "pIC50", "setting": "[2]", "value": 4.01}]}
{"compound": "COc1cc2ncnc(Nc3ccc(-c4cc(-c5ccc(Br)cc5)c(C#N)c(=N)[nH]4)cc3)c2cc1OC", "note": "[HER2/EGFR dual kinase inhibitor, 5e]", "values": [{"measurement": "pIC50", "setting": "[1]", "value": 5.71}, {"measurement": "pIC50", "setting": "[2]", "value": 5.98}]}
{"compound": "N#Cc1c(-c2ccc(F)cc2)cc(-c2ccc(Nc3ncnc4ccccc34)cc2)[nH]c1=N", "note": "[HER2/EGFR dual kinase inhibitor, 5d]", "values": [{"measurement": "pIC50", "setting": "[1]", "value": 5.68}, {"measurement": "pIC50", "setting": "[2]", "value": 5.40}]}
